In patent US12414935B2, “Compounds and methods for the treatment of parasitic diseases” (WASHINGTON UNIVERSITY, priority 2019, dated 2025):

Assays:
C. parvum [1] = experiment: C. parvum in vitro EC50 assay in HCT-8 cells; assay type: cell-based; conditions: Cryptosporidium parvum, HCT8 cells, 24 hr, Mean +/- S.D., N = 3, 9 pt curve
Protocol: (§1) In vitro assays measuring the EC50 value for C. parvum infection may be run to determine the efficacy of the compounds. For example, human ileocecal adenocarcinoma (HCT-8) cells can be obtained from ATCC and maintained in T-75 tissue culture flasks with RPMI 1640 medium with HEPES, sodium pyruvate (1 mM), and L-glutamine (ATCC) supplemented with 10% horse serum (ATCC) and 120 U/ml penicillin and 120 μg/ml streptomycin. Cells can be plated into 384-well, tissue culture-treated, black-walled, clearbottom microwell plates (BD Falcon) at a density of 8,850 cells/well and allowed to grow to confluence. The cells may then be inoculated with 5.5×10^3 primed C. parvum oocysts (Bunchgrass Farms, Deary, ID) suspended in inoculation medium (RPMI 1640 without horse serum). Oocysts may be primed for excystation by following a previously described protocol (J. Eukaryot. Microbiol. 46:56S-57S). Briefly, oocysts can be treated for 10 min with 10 mM HCl at 37° C., centrifuged, and treated with a 2 mM solution of sodium taurocholate (Sigma-Aldrich) in phosphate-buffered saline (PBS) with Ca^2+ and Mg^2+. The suspension can be incubated for 10 min at 16° C. and then diluted in inoculation medium and added to each well. Infected cells are incubated at 37° C. for 3 h, at which point an equal volume of growth medium containing 20% horse serum (total serum concentration of 10%) is produced. Compounds are diluted and assayed at fixed doses (e.g., 0.12, 0.37, 1.1, 3.3, and 10 μM, with each concentration, n=14) for the generation of EC50 curves. In the case of final EC50 curves, three wells are left uninfected but treated with each of the corresponding concentrations of the compound to assess for background staining. All curves are generated using the log[inhibitor] versus response variable slope equation in GraphPad Prism, with the bottom constraint set equal to 0.
(§2) Such assays were prepared on HTC-8 cells and ALI. Table 2 illustrates measured EC50 at various time points.

C. parvum [2] = experiment: C. parvum in vitro EC50 assay in ALI culture; assay type: cell-based; conditions: Cryptosporidium parvum, 48 hr, Mean +/- S.D., N = 2, 5 pt curve
Protocol: as §1, §2
Briefly, i3T3 cells were plated in CM media. Spheroids were plated on the cells. […]

Row | EC50 (C. parvum [1]) [nM] | EC50 (C. parvum [2]) [nM] | SMILES
1 | 11 ± 3 | 28 ± 2 | COc1ccc(NC(=O)N2CCCCN3[C@H](CN(C)S(C)(=O)=O)[C@H](c4ccc(C#Cc5ccccc5)cc4)[C@@H]3C2)cc1 [Compound 1, (8R,9R,10S)-N-(4-methoxyphenyl)-10-((N-methylmethylsulfonamido)methyl)-9-(4-(phenylethynyl)phenyl)-1,6-diazabicyclo[6.2.0]decane-6-carboxamide]
2 | 33 ± 9 | 113 ± 15 | COc1ccc(NC(=O)N2CCCCN3[C@H](CN(C)C)[C@H](c4ccc(C#Cc5ccccc5)cc4)[C@@H]3C2)cc1 [Compound 2, (8R,9S,10S)-10-((dimethylamino)methyl)-N-(4-methoxyphenyl)-9-(4-(phenylethynyl)phenyl)-1,6-diazabicyclo[6.2.0]decane-6-carboxamide]
3 | 2190 ± 378 | 25900 ± 4140 | CC(=O)Oc1ccccc1C(=O)Nc1ncc([N+](=O)[O-])s1 [Nitazoxanide, reference compound]
